Results taken from patent publication EP0808325B1, “[…] […] SERIES FOR […] GABA RECEPTOR” (priority 1994, dated 1996).

Tests used:
[1] = test system: metrazol induced convulsions; assay: animal or person; type: in vivo, mice; settings: for % Protected: 10 mg/kg
Procedure: Experiments were also performed to determine the physiological relevance of neuroactive steroid and GABA receptor interactions by assessing the ability of the compounds of and used in the invention to prevent metrazol induced convulsions in mice. […] The time to onset of myoclonus (presence of forelimb clonic activity) induced by metrazol was determined by observing each mouse for a period of 30 minutes. […]
The anticonvulsant tests are similar to that described above. […] The number of animals with tonic and/or clonic convulsions was recorded. In the maximal electroshock test, 50 mA of current at 60 Hz was delivered through corneal electrodes for 200 msec to induce tonic seizure. The ability of compounds to abolish the tonic component was defined as the endpoint. General CNS depression potential was determined by a rotorod test 10 minutes after the injection of compounds where the number of mice staying on a rotating (6 rpm) rod for 1 minute in one of the three trials was determined. […]

GR complex = assay: modulation of [35S]TBPS binding in rat cerebral cortex P2 homogenate; set-up: species or system Sprague-Dawley rats; IMAX: unit not given here; settings: for IC50: concentration of compounds to inhibit 50% of control [35S]TBPS binding, 2 nM [35S]TBPS, 25°C, 90 minutes, no unit printed; for IMAX: maximum inhibition of [35S]TBPS binding, I* = Inactive
Procedure: We performed several experiments to determine the nature of the modulation of [^35S]TBPS as affected by the compounds of the invention.
These procedures were performed as follows:
Brains from male Sprague-Dawley rats were removed immediately following sacrifice and the cerebral cortices dissected over ice. […] Briefly, the cortices were gently homogenized in 0.32 M sucrose followed by centrifugation at 1000 x g for 10 minutes. The supernatant was collected and centrifuged at 9000 x g for 20 minutes. The resultant P2 pellet was suspended as a 10% (original wet weight/volume) suspension in 50 mM Na/K phosphate buffer (pH 7.4) 200 mM NaCI to form the homogenate.
One hundred microliter […] aliquots of the P2 homogenate (0.5 milligrams (mg) protein) were incubated with 2 nanomolar (nM) [^35S]TBPS (70-110 curies/millimole;, New England Nuclear, Boston, MA) in the presence or absence of the naturally occurring steroids or their synthetic derivatives to be tested. The tested compounds were dissolved in dimethylsulfoxide (Baker Chem. Co., Phillipsbury, NJ) and added to the incubation mixture in 5 µL aliquots. The incubation mixture was brought to a final volume of 1 mL with buffer. Nonspecific binding was defined as binding in the presence of […]. The effect and specificity of GABA (Sigma Chem. Co., St. Louis, MO) was evaluated by performing all assays in the presence of GABA plus (+)bicuculline (Sigma Chem. Co.). Incubations maintained at 25°C for 90 minutes (steady state conditions) were terminated by rapid filtration through glass fiber filters (No. 32, Schleicher and Schuell, Keene, NH). Filter-bound radioactivity was quantitated by liquid scintillation spectrophotometry.
Various compounds were screened to determine their potential as modulators of [^35S]TBPS binding in vitro. These assays were performed in accordance with the above discussed procedures. […] It is an indication of a compound's in vitro potency. Maximum inhibition is an indication of a compound's in vitro efficacy.

[2] = IP, 50% hpbcd, 10 minutes prior to metrazol (85 mg/kg)
[3] = 60 mg/kg, 1 hr, IP, anti-metrazol

Row | Compound | IC50 (GR complex) | IMAX (GR complex) | further results
1 | CC(C)(O)[C@H]1CC[C@H]2[C@@H]3CC[C@@H]4C[C@](C)(O)CC[C@]4(C)[C@H]3CC[C@]12C [3α,20-Dihydroxy-3β,20-dimethyl-5β-pregnane] |  |  | % Protected ([1]; IP, micro soln.): 22.2%
2 | C#CC1(O)CCC2(C)C(CCC3C2CCC2(C)C(C(C)O)CCC32)C1 (stereo not drawn) [3α,20α-dihydroxy-3β-ethynyl-5α-pregnane, 3β-Ethynyl-3α,20α-dihydroxy-5α-pregnane] | 202 nM | 56 | 
3 | C#CC1(O)CCC2(C)C(CCC3C2CCC2(C)C(C(C)O)CCC32)C1 (stereo not drawn) [3α,20α-dihydroxy-3β-ethynyl-5β-pregnane, 3β-Ethynyl-3α,20α-dihydroxy-5β-pregnane] | 557 nM | 98 | 
4 | C#C[C@@]1(O)CC[C@@]2(C)[C@@H](CC[C@@H]3[C@@H]2CC[C@]2(C)[C@@H]([C@@H](C)O)CC[C@@H]32)C1 [3α,20β-dihydroxy-3β-ethynyl-5α-pregnane, 3β-ethynyl-3α,20β-dihydroxy- 5α-pregnane] | 774 nM | 107 | % Protected [1, 2]: 37.5%
5 | C#C[C@@]1(O)CC[C@@]2(C)[C@H](CC[C@@H]3[C@@H]2CC[C@]2(C)[C@@H]([C@@H](C)O)CC[C@@H]32)C1 [3α,20β-dihydroxy-3β-ethynyl-5β-pregnane, 3β-Ethynyl-3α,20β-dihydroxy-5β-pregnane] | 688 nM | 77 | % Protected [1, 2]: 25%
6 | CC(O)C1CCC2C3CCC4CC(C)(O)CCC4(C)C3CCC12C (stereo not drawn) [3α,20β-dihydroxy-3β-methyl-5α-pregnane] | 924 nM | 99 | 
7 | CC(O)C1CCC2C3CCC4CC(C)(O)CCC4(C)C3CCC12C (stereo not drawn) [3α,20β-dihydroxy-3β-methyl-5β-pregnane] | 455 nM | 105 | 
8 | C[C@]12CC[C@](O)(C(F)(F)F)C[C@H]1CC[C@@H]1[C@@H]2CC[C@]2(C)[C@@H](C(=O)COC(=O)CCC(=O)O)CC[C@@H]12 [3α,21-Dihydroxy-3β-trifluoromethyl-5β-pregnan-20-one, 21-hemisuccinate] | 648 nM | 101 | % Protected ([1]; IP, water): 50%
9 | CC(=O)OCC(=O)[C@H]1CC[C@H]2[C@@H]3CC[C@H]4C[C@](C)(O)CC[C@]4(C)[C@H]3CC[C@]12C [3α,21-Hydroxy-3β-methyl-5α-pregnan-20-one, 21-acetate] | 284 nM | 93 | % Protected ([1]; IP, micro soln.): 10%
10 | C=C[C@@]1(O)CC[C@@]2(C)[C@@H](CC[C@@H]3[C@@H]2CC[C@]2(C)[C@@H](C(=O)COC(=O)CCC(=O)O)CC[C@@H]32)C1 [3α,21-dihydroxy-3β-ethenyl-5α-pregnan-20-one 21-hemisuccinate] | 377 nM | 89 | 
11 | C=C[C@@]1(O)CC[C@@]2(C)[C@@H](CC[C@@H]3[C@@H]2CC[C@]2(C)[C@@H](C(=O)CO)CC[C@@H]32)C1 [3α,21-dihydroxy-3β-ethenyl-5α-pregnan-20-one] | 288 nM | 101 | 
12 | COC(=O)CCC(=O)OCC(=O)C1CCC2C3CCC4CC(O)(C(F)(F)F)CCC4(C)C3CCC12C (stereo not drawn) [3α,21-dihydroxy-3β-trifluoromethyl-5β-pregnan-20-one methyl 21-succinate] | 480 nM | 86 | 
13 | C[C@]12CC[C@@H](O)C[C@@H]1CC[C@@H]1[C@@H]2CC[C@]2(C)[C@@H](C(=O)COC(=O)CCC(=O)O)CC[C@@H]12 [3α,21-dihydroxy-5α-pregnan-20-one 21-hemisuccinate] | 117 nM | 91 | 
14 | CCC(=O)[C@H]1CC[C@H]2[C@@H]3CC[C@H]4C[C@](C)(O)CC[C@]4(C)[C@H]3CC[C@]12C [3α-hydroxy-3β,21-dimethyl-5α-pregnan-20-one] | 89 nM | 85 | 
15 | CC(=O)[C@H]1CC[C@H]2[C@@H]3CC[C@H]4C[C@](C)(O)CC[C@]4(C)[C@H]3C=C[C@]12C [3α-hydroxy-3β-methyl-5α-pregn-11-en-20-one] | 242 nM | 76 | 
16 | CC(=O)[C@H]1CC[C@H]2[C@@H]3CC[C@H]4C[C@](C)(O)CC[C@]4(C)[C@H]3C(=O)C[C@]12C [3α-hydroxy-3β-methyl-5α-pregnane-11,20-dione] | 958 nM | 100 | 
17 | CC(=O)[C@H]1CC[C@H]2[C@@H]3CC[C@@H]4C[C@](C)(O)CC[C@@H]4[C@H]3CC[C@]12C [3α-hydroxy-3β-methyl-5β-19-nor-pregnan-20-one] | 26 nM | 94 | 
18 | CC(=O)C1=CC[C@H]2[C@@H]3CC[C@@H]4C[C@](C)(O)CC[C@]4(C)[C@H]3CC[C@]12C [3α-hydroxy-3β-methyl-5β-pregn-16-en-20-one] | 955 nM | 100 | 

Row | Compound | IC50 (GR complex) | IMAX (GR complex) | further results
19 | CCC(=O)[C@H]1CC[C@H]2[C@@H]3CC[C@@H]4C[C@H](O)CC[C@]4(C)[C@H]3CC[C@]12C [3α-hydroxy-21-methyl-5β-pregnan-20-one] | 78 nM | 100 | 
20 | CCCCC#C[C@@]1(O)CC[C@@]2(C)[C@H](CC[C@@H]3[C@@H]2CC[C@]2(C)[C@@H](C(C)=O)CC[C@@H]32)C1 [3β-(1-hexynyl)-3α-hydroxy-5β-pregnan-20-one] |  |  | % Protected [1, 2]: 37.5%
21 | CC(=O)C1CCC2C3CCC4CC(O)(C#CCCCCl)CCC4(C)C3CCC12C (stereo not drawn) [3β-(5'-chloropentyn-1'-yl)-3α-hydroxy-5β-pregnan-20-one] | 44 nM | 98 | 
22 | CC(=O)C1CCC2C3CCC4CC(OC(=O)c5ccc(Cl)cc5)CCC4(C)C3CCC12C (stereo not shown) [4-Chlorophenyl] |  |  | % Protection [1, 3]: 50%
23 | COc1ccc(C(=O)OC2CCC3(C)C(CCC4C3CCC3(C)C(C(C)=O)CCC43)C2)cc1 (stereo not shown) [4-Methoxyphenyl] |  |  | % Protection [1, 3]: 17%
24 | CC12CCC(O)(C(F)(F)F)CC1CCC1C2CCC2(C)C(C(=O)CBr)CCC12 (stereo not drawn) [21-bromo-3α-hydroxy-3β-trifluoromethyl-5β-pregnan-20-one] | 1530 nM | 102 | 
25 | CCCCC(=O)OC1CCC2(C)C(CCC3C2CCC2(C)C(C(C)=O)CCC32)C1 (stereo not shown) [Butyl] |  |  | % Protection ([1]; mouse, in vivo): 33%
26 | CCC(=O)OC1CCC2(C)C(CCC3C2CCC2(C)C(C(C)=O)CCC32)C1 (stereo not shown) [Ethyl] |  |  | % Protection [1, 3]: 75%
27 | CC(=O)C1CCC2C3CCC4CC(OC(=O)C(C)C)CCC4(C)C3CCC12C (stereo not shown) [Example 2-Propyl] |  |  | % Protection [1, 3]: 75%
28 | CC(=O)C1CCC2C3CCC4CC(OC(=O)c5cccnc5)CCC4(C)C3CCC12C (stereo not shown) [Example 3-Pyridyl] |  |  | % Protection ([1]; 60 mg/kg, IP, 20 hour, anti-metrazol): 50 (20 hour) %
29 | CCCC(CCC)C(=O)OC1CCC2(C)C(CCC3C2CCC2(C)C(C(C)=O)CCC32)C1 (stereo not shown) [Example 4-Heptyl] |  |  | % Protection ([1]; 60 mg/kg, IP, 4 hour, anti-metrazol): 16 (4 hour) %
30 | CC(=O)OC1CCC2(C)C(CCC3C2CCC2(C)C(C(C)=O)CCC32)C1 (stereo not shown) [Methyl] |  |  | % Protection [1, 3]: 25%
31 | CC(=NCCO)[C@H]1CC[C@H]2[C@@H]3CC[C@H]4C[C@](C)(O)CC[C@]4(C)[C@H]3CC[C@]12C [N-(3α-hydroxy-3β-methyl-5α-pregnan-20-ylidine)ethanolamine] | 101 nM | 93 | 
32 | CC(=O)C1CCC2C3CCC4CC(OC(=O)c5ccccc5)CCC4(C)C3CCC12C (stereo not shown) [Phenyl] |  |  | % Protection [1, 3]: 33%
33 | CCCC(=O)O[C@@H]1CC[C@@]2(C)[C@@H](CC[C@@H]3[C@@H]2CC[C@]2(C)[C@@H](C(C)=O)CC[C@@H]32)C1 [Propyl] |  |  | % Protection [1, 3]: 75%
34 | CC(C)CCC[C@@H](C)[C@H]1CC[C@H]2[C@@H]3CC=C4C[C@@H](O)CC[C@]4(C)[C@H]3CC[C@]12C [cholesterol, reference compound] | > 1000 nM | I* | 
35 | C[C@]12C[C@H](O)[C@H]3[C@@H](CCC4=CC(=O)CC[C@@]43C)[C@@H]1CC[C@@H]2C(=O)CO [corticosterone, reference compound] | > 1000 nM | I* | 
36 | CC(=O)[C@H]1CC[C@H]2[C@@H]3CCC4=CC(=O)CC[C@]4(C)[C@H]3CC[C@]12C [progesterone, reference compound] | > 1000 nM | I* | 
